Source: PubChem BioAssay AID1963874 (Molecular Pharmacology Branch, DTP, NCI, 2024)

System: 253994-281-T-J1-PDC KRAS-mutant spheroids with HUVEC/MSC, viability
Assay: Anticancer human tumor 253994-281-T-J1-PDC patient-derived colorectal carcinoma cell line growth inhibition [KRAS2]
Details: for IC50: curve of first compound; for viability, T/C: stronger effect = lower value
Procedure, shortened: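 Combination screen of spheroid viability in tumor-cell co-cultures with endothelial (HUVEC) and mesenchymal stem cell stroma. Each agent was tested in half-log dilutions, topping at clinical Cmax or at 10 microM without a known Cmax.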

[1] = second compound 0.0316 µM, first compound 0.01 µM
[2] = second compound 0.0316 µM, first compound 0.0316 µM
[3] = second compound 0.0316 µM, first compound 0.1 µM
[4] = second compound 0.0316 µM, first compound 0.316 µM
[5] = second compound 0.0316 µM, first compound 1 µM
[6] = second compound 0.0316 µM, first compound 3.16 µM
[7] = second compound 0.1 µM, first compound 0.01 µM
[8] = second compound 0.1 µM, first compound 0.0316 µM
[9] = second compound 0.1 µM, first compound 0.1 µM
[10] = second compound 0.1 µM, first compound 0.316 µM
[11] = second compound 0.1 µM, first compound 1 µM
[12] = second compound 0.1 µM, first compound 3.16 µM
[13] = second compound 0.316 µM, first compound 0.01 µM
[14] = second compound 0.316 µM, first compound 0.0316 µM
[15] = second compound 0.316 µM, first compound 0.1 µM
[16] = second compound 0.316 µM, first compound 0.316 µM
[17] = second compound 0.316 µM, first compound 1 µM
[18] = second compound 0.316 µM, first compound 3.16 µM
[19] = second compound 1 µM, first compound 0.01 µM
[20] = second compound 1 µM, first compound 0.0316 µM
[21] = second compound 1 µM, first compound 0.1 µM
[22] = second compound 1 µM, first compound 0.316 µM
[23] = second compound 1 µM, first compound 1 µM
[24] = second compound 1 µM, first compound 3.16 µM
[25] = second compound 3.16 µM, first compound 0.01 µM
[26] = second compound 3.16 µM, first compound 0.0316 µM
[27] = second compound 3.16 µM, first compound 0.1 µM
[28] = second compound 3.16 µM, first compound 0.316 µM
[29] = second compound 3.16 µM, first compound 1 µM
[30] = second compound 3.16 µM, first compound 3.16 µM
[31] = second compound 0.0316 µM, first compound 10 µM
[32] = second compound 0.1 µM, first compound 10 µM
[33] = second compound 0.316 µM, first compound 10 µM
[34] = second compound 1 µM, first compound 10 µM
[35] = second compound 3.16 µM, first compound 10 µM
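Also: spheroids exposed to agents for seven days before readout.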
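For viability, T/C in this document: percent of DMSO vehicle control viability.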

Compound | IC50 (second compound 0.0316 µM) [nM] | IC50 (second compound 0.1 µM) [nM] | IC50 (second compound 0.316 µM) [nM] | IC50 (second compound 1 µM) [nM] | IC50 (second compound 3.16 µM) [nM] | viability, T/C [2] [%] | viability, T/C [3] [%] | viability, T/C [4] [%] | viability, T/C [5] [%] | viability, T/C [6] [%] | viability, T/C [8] [%] | viability, T/C [9] [%] | viability, T/C [10] [%] | viability, T/C [11] [%] | viability, T/C [14] [%] | viability, T/C [15] [%] | viability, T/C [20] [%] | viability, T/C [21] [%] | viability, T/C [26] [%] | viability, T/C [27] [%] | other results
CC(=O)OC12COC1CC(O)C1(C)C(=O)C(O)C3=C(C)C(OC(=O)C(O)C(NC(=O)OC(C)(C)C)c4ccccc4)CC(O)(C(OC(=O)c4ccccc4)C21)C3(C)C (stereo not given) + C=CC(=O)N1CCN(c2nc(OCC3CCCN3C)nc3c2CCN(c2cccc4cccc(C)c24)C3)CC1CC#N | 32.8 | 28 | 27.6 | 27.6 | 27.3 | 50.4 | 33.6 | 28.1 | 28 | 33.7 | 46.6 | 31.7 | 40 | 27.6 | 44.5 | 33.5 | 46.3 | 28.9 | 45.7 | 31.4 | viability, T/C [1]: 96.4%; viability, T/C [7]: 80.4%; viability, T/C [12]: 28%; viability, T/C [13]: 85.4%; viability, T/C [16]: 29%; viability, T/C [17]: 27.2%; viability, T/C [18]: 26.4%; viability, T/C [19]: 77.7%; viability, T/C [22]: 26%; viability, T/C [23]: 28.1%; viability, T/C [24]: 29.5%; viability, T/C [25]: 79.3%; viability, T/C [28]: 27.5%; viability, T/C [29]: 29.3%; viability, T/C [30]: 28.1%
CN(C)C/C=C/C(=O)Nc1cc2c(Nc3ccc(F)c(Cl)c3)ncnc2cc1O[C@H]1CCOC1 + C=CC(=O)N1CCN(c2nc(OCC3CCCN3C)nc3c2CCN(c2cccc4cccc(C)c24)C3)CC1CC#N | > 100 | > 100 | > 100 | > 100 | 0.72 | 88.5 | 54 |  |  |  | 69.2 | 53.8 |  |  | 78.3 | 66.5 | 73.1 | 62.2 | 19.6 | 5.55 | viability, T/C (second compound 0.0316 µM, first compound 0.000316 µM): 95.7%; viability, T/C (second compound 0.0316 µM, first compound 0.001 µM): 89.4%; viability, T/C (second compound 0.0316 µM, first compound 0.00316 µM): 92.3%; viability, T/C [1]: 95.7%; viability, T/C (second compound 0.1 µM, first compound 0.000316 µM): 83.2%; viability, T/C (second compound 0.1 µM, first compound 0.001 µM): 91.5%; viability, T/C (second compound 0.1 µM, first compound 0.00316 µM): 76.6%; viability, T/C [7]: 86.1%; viability, T/C (second compound 0.316 µM, first compound 0.000316 µM): 95.7%; viability, T/C (second compound 0.316 µM, first compound 0.001 µM): 81.3%; viability, T/C (second compound 0.316 µM, first compound 0.00316 µM): 87.5%; viability, T/C [13]: 77.4%; viability, T/C (second compound 1 µM, first compound 0.000316 µM): 97.9%; viability, T/C (second compound 1 µM, first compound 0.001 µM): 108%; viability, T/C (second compound 1 µM, first compound 0.00316 µM): 83.1%; viability, T/C [19]: 69.4%; viability, T/C (second compound 3.16 µM, first compound 0.000316 µM): 53.8%; viability, T/C (second compound 3.16 µM, first compound 0.001 µM): 48.5%; viability, T/C (second compound 3.16 µM, first compound 0.00316 µM): 4.58%; viability, T/C [25]: 22%
COC(=O)c1ccc2c(C(=Nc3ccc(N(C)C(=O)CN4CCN(C)CC4)cc3)c3ccccc3)c(O)[nH]c2c1 + C=CC(=O)N1CCN(c2nc(OCC3CCCN3C)nc3c2CCN(c2cccc4cccc(C)c24)C3)CC1CC#N | 4960 | 4290 | 3340 | 2310 | < 31.6 | 101 | 112 | 98.7 | 96.4 | 76.3 | 94.2 | 88.3 | 86.7 | 75.5 | 109 | 85.9 | 90.7 | 85.8 | 5.16 | 10.4 | viability, T/C [31]: 9.63%; viability, T/C [12]: 66.9%; viability, T/C [32]: 13.4%; viability, T/C [16]: 80.4%; viability, T/C [17]: 72.5%; viability, T/C [18]: 59.4%; viability, T/C [33]: 15.7%; viability, T/C [22]: 66.9%; viability, T/C [23]: 72.7%; viability, T/C [24]: 44%; viability, T/C [34]: 0.21%; viability, T/C [28]: 18.4%; viability, T/C [29]: 9.87%; viability, T/C [30]: 0.17%; viability, T/C [35]: 0.22%
O=C(c1cc(Cc2n[nH]c(=O)c3ccccc23)ccc1F)N1CCN(C(=O)C2CC2)CC1 + C=CC(=O)N1CCN(c2nc(OCC3CCCN3C)nc3c2CCN(c2cccc4cccc(C)c24)C3)CC1CC#N | > 10000 | > 10000 | > 10000 | > 10000 | < 31.6 | 108 | 100 | 95.8 | 90.5 | 90.5 | 83.1 | 101 | 94.1 | 87.1 | 80.3 | 81 | 87.4 | 113 | 32.7 | 13 | viability, T/C [31]: 82.8%; viability, T/C [12]: 82.1%; viability, T/C [32]: 85.2%; viability, T/C [16]: 83.8%; viability, T/C [17]: 73%; viability, T/C [18]: 79.6%; viability, T/C [33]: 89.6%; viability, T/C [22]: 88.2%; viability, T/C [23]: 90.7%; viability, T/C [24]: 81.4%; viability, T/C [34]: 80.8%; viability, T/C [28]: 15.7%; viability, T/C [29]: 24.1%; viability, T/C [30]: 21%; viability, T/C [35]: 21.1%
